From US20230061319A1, “METHODS OF TREATING TUMORS” (CoImmune, Inc., priority 2020, published 2023)

Columns and labels:
CD19^+ B cells = experiment: Flow cytometry of CD38+ and LAP+ B cells in stimulated PBMCs from mRCC patients
Text: T cells were identified using APC-H7 Mouse Anti-Human CD3 antibody (clone SK7, BD Biosciences). T cell subsets were identified using Pacific Blue Mouse Anti-Human CD4 antibody (clone RPA-T4, BD Biosciences) and PerCP-Cy5.5 Mouse Anti-Human CD8 antibody (clone SK1, BD Biosciences). Activated T cells expressing the IL-2 alpha receptor were identified using Brilliant Violet 605 Mouse Anti-Human CD25 antibody (clone 2A3, BD Biosciences). The T cell costimulatory receptor that binds CD80 and CD86 was identified using PE Mouse Anti-Human CD28 antibody (clone CD28.2, BD Biosciences). B cells were identified using APC-eFluor 780 Mouse Anti-Human CD19 antibody (clone HIB19, ThermoFisher Scientific). Terminally differentiated B cells were identified using APC Mouse Anti-Human CD38 antibody. Proliferating cells were identified using Brilliant Violet Mouse Anti-Ki-67 antibody (clone B56, BD Biosciences). […] The multifunctional cytokine Human Transforming Growth Factor beta-1 was identified using PerCP-Cy5.5 Mouse anti-Human LAP (TGF-β1) antibody (clone TW4-2F8, Biolegend). 5 mL tubes containing cultured cells were centrifuged at 400 g for 5 minutes after which supernatant was decanted. Pelleted cells were washed by adding 2 mL of Stain Buffer containing fetal bovine serum and ≤0.09% sodium azide (BD Biosciences), briefly vortexed and centrifuged. Stain Buffer was decanted from tubes and pelleted samples were then surfaced stained with monoclonal antibody, briefly vortexed and incubated at room temperature for 15 minutes in the dark. Samples were then washed with 2 mL of PBS, centrifuged and resuspended in 1 mL of PBS. 2 µL of LIVE/DEAD Fixable Aqua Dead Cell dye (ThermoFisher Scientific) was added to each sample and incubated at 37° C. for 15 minutes. Samples were washed and centrifuged twice with 2 mL of Stain Buffer. Decanted and pelleted cells were vortexed and then fixed with 1 mL of diluted Transcription Factor Fix/Perm Buffer (BD Biosciences) for 15 minutes at room temperature. 1 mL of 1x Transcription Factor Perm/Wash Buffer (BD Biosciences) was added to each sample, briefly vortexed and centrifuged. Perm/Wash buffer was decanted from samples and washed again with 2 mL of Perm/Wash buffer. Perm/Wash Buffer was decanted from tubes and pelleted samples were then stained for intracellular antigens with monoclonal antibody, briefly vortexed and incubated at room temperature for 15 minutes in the dark. After incubation, samples were washed twice with Perm/Wash Buffer and resuspended in 350 µL of Stain Buffer. […]
Frozen patient PBMC were thawed, counted, and washed in PBS. […] The cells were counted and set up in culture at 1x10^6 cells/mL in X-VIVO 15 media. […]

[1] = system: healthy donor PBMC T cells; experiment: Two-way MLR of HLA-mismatched healthy donor PBMCs with mRCC patient plasma with or without everolimus; format: cell-based, human; conditions: MLR 7 days, 2% mRCC patient plasma
Procedure: (§1) PBMCs and DCs were thawed and washed in PBS (Lonza) prior to counting. Post maturation electroporated monocyte-derived dendritic cells (PME-CD40L) were generated from healthy donors as described in DeBenedette MA. et al., J Immunol. 181(8):5296-5305 (2008) (incorporated herein by reference in its entirety), and were co-electroporated with RNA encoding the pp65 CMV protein and RNA encoding CD40L. Viable cell counts were performed using BD TruCount Absolute Counting Tubes and propidium iodide (BD Biosciences) by flow cytometry. PBMCs and DCs were re-suspended in X-Vivo15 (with gentamicin and phenol red) (Lonza) containing 10% normal human AB serum (Valley biomedical). […] Frozen PBMC vials from 2 HLA-mismatched healthy donors were thawed and counted. […] Purified Mouse anti-human CD3 (clone OKT3, BD Biosciences) was used to stimulate healthy donor PBMCs in culture.
Given the observation that patients enrolled in the ADAPT study who received everolimus as 2nd line therapy after receiving DC therapy had better clinical outcomes, the concept that everolimus may reverse the immune suppressive activity of mRCC patient plasma and augment T cell responses was investigated. HLA-mismatched healthy donor PBMCs were mixed and cultured for 7 days in the presence of 2% mRCC patient plasma and with or without 20 ng of everolimus added on day 0, and the frequency of CD28^+ memory T cells was determined. […] However, this restoration was not statistically significant (p<0.087) when the suppressive activity of plasma samples collected from six individual mRCC patients was tested (FIG. 17C). In contrast, an increase in the frequency of proliferating CD28^-CD4 T cells was […] with plasma addition, which could be reversed with the addition of everolimus (FIG. 17D). A similar pattern was detected for CD8 T cells (a decrease in the frequency of proliferating CD28^+ CD8 T cells (FIG. 17E) and increase in the frequency of proliferating CD28^-CD8 T cells (FIG. 17F)) in the presence of plasma, which the addition of everolimus could reverse. […] To expand the understating whereby everolimus can reduce the immune suppressive impact of mRCC, patient plasma PBMCs were stimulated with autologous DCs presenting the pp65 CMV antigen. Healthy donor PBMCs and autologous DCs were mixed and cultured for 6 days in the presence of 2% mRCC patient plasma and with or without 20 ng of everolimus added on day 0. A small but reproducible frequency of proliferating CD28^+ CD4 T cells was induced, but very few CD28^-CD4 T cells (FIG. 18A left panel), which is unlike the CD4 T cell response seen in the MLR. […] A low frequency of proliferating CD28^- CD4 T cells was detected, and everolimus has little impact on the frequency of these cells (FIG. 18D).
Given the observation that plasma suppression selectively impacts the frequency of CD28^+ T cells and everolimus mediates a reduced suppression of this memory phenotype, the CD28^+ T cell subset was further characterized. HLA-mismatched healthy donor PBMCs were mixed and cultured for 7 days in the presence of 2% mRCC patient plasma and with or without 20 ng of everolimus added on day 0. […] Both the expression of CD25 and CD28 receptors on T cells are critical for full differentiation of memory T cells.
(§2) To understand the ability of everolimus to restore the frequency of CD25^+CD28^+ T cells, the expression of both CD25 and CD28 on CD8 T cells stimulated in the MLR or with autologous DCs in the presence of mRCC patient plasma was measured by the geometric mean fluorescence intensity (MFI).

[2] = than rapamycin (sirolimus); cited from earlier work
[3] = system: healthy donor PBMC T cells; experiment: Healthy donor PBMCs stimulated with autologous PME-CD40L-CMV DCs with mRCC patient plasma with or without everolimus; format: cell-based, human
Procedure: as §1
HLA-mismatched healthy donor PBMCs were mixed and cultured for 7 days in the presence of 2% mRCC patient plasma and with or without 20 ng of everolimus added on day 0, and the frequency of CD28^+ memory T cells was determined. […] To expand the understating whereby everolimus can reduce the immune suppressive impact of mRCC, patient plasma PBMCs were stimulated with autologous DCs presenting the pp65 CMV antigen. Healthy donor PBMCs and autologous DCs were mixed and cultured for 6 days in the presence of 2% mRCC patient plasma and with or without 20 ng of everolimus added on day 0.
Furthermore, the impact of everolimus on the suppressive effect of mRCC patient plasma when PBMCs were stimulated with autologous DCs was examined.
as §2

[4] = 20 ng everolimus, statistically significant, six plasma samples
[5] = autologous DCs 6 days, 2% mRCC patient plasma, 20 ng everolimus
[6] = autologous DCs, mRCC patient plasma, everolimus, statistically significant

CO[C@H]1C[C@@H]2CC[C@@H](C)[C@@](O)(O2)C(=O)C(=O)N2CCCC[C@H]2C(=O)O[C@H]([C@H](C)C[C@@H]2CC[C@@H](OCCO)[C@H](OC)C2)CC(=O)[C@H](C)/C=C(\C)[C@@H](O)[C@@H](OC)C(=O)[C@H](C)C[C@H](C)/C=C/C=C/C=C/1C [everolimus]
frequency of CD19+ LAP+ B cells (CD19^+ B cells; stimulated cultures with everolimus): decrease
frequency of LAP+/Ig+ CD38+ B cells (CD19^+ B cells; stimulated with everolimus, sub-gating of LAP+ B cells (3.89% without)): 0.11%
frequency of LAP+CD38+Ig- B cells (CD19^+ B cells; stimulated with everolimus, sub-gating of LAP+ B cells (4.04% without)): 2.63%
frequency of LAP+/Ig+ B cells (CD19^+ B cells; stimulated with everolimus, sub-gating of LAP+ B cells (61.5% without)): 6.14%
expression of CD25 on CD8 T cells (MFI) ([1]; 20 ng everolimus): statistically significant increase
expression of CD28 on CD8 T cells (MFI) ([1]; 20 ng everolimus): statistically significant increase
plasma-induced change in frequency of proliferating CD28- CD4 T cells ([1]; 20 ng everolimus on day 0): reversed
frequency of proliferating CD28+ CD4 T cells reduced by mRCC patient plasma ([1]; 20 ng everolimus on day 0, not statistically significant (p<0.087), six plasma samples): partially restored
frequency of CD25+CD28- CD8 T cells among CD25+ CD8 T cells ([1]; 20 ng everolimus, p< 0.001): no longer represented the dominant population
frequency of CD25+CD28+ CD8 T cells ([1]; 20 ng everolimus, p< 0.0061): partial restoration
frequency of CD25+CD28+ CD4 T cells ([1]; 20 ng everolimus, p< 0.045): partial restoration
plasma-induced decrease in frequency of proliferating CD28+ CD8 T cells [1, 4]: reverse
plasma-induced increase in frequency of proliferating CD28- CD8 T cells [1, 4]: reverse
pharmokinetics [2]: more favorable
expression of CD25 on CD8 T cells (MFI) [3, 5]: statistically significant increase
expression of CD28 on CD8 T cells (MFI) [3, 5]: statistically significant increase
frequency of proliferating CD28- CD4 T cells [3, 5]: little impact
frequency of proliferating CD28+ CD4 T cells suppressed by mRCC patient plasma ([3]; autologous DCs 6 days, 2% mRCC patient plasma, 20 ng everolimus on day 0, not statistically significant (p<0.283)): partially restored
plasma mediated suppression of proliferating CD28+ CD8 T cells ([3]; autologous DCs 6 days, 2% mRCC patient plasma, 20 ng everolimus, p< 0.0002): partially reversed
frequency of proliferating CD28- CD8 T cells ([3]; autologous DCs 6 days, 2% mRCC patient plasma, 20 ng everolimus, p<0.92): minimal ability to decrease
frequency of CD25+CD28+ CD4 T cells ([3]; autologous DCs, mRCC patient plasma, everolimus, did not reach statistical significance): partially restored
frequency of CD25+CD28+ CD8 T cells [3, 6]: partially restore
frequency of CD25+CD28- CD8 T cells [3, 6]: partially restore
